According to patent publication US9440982B2 (Eolas Therapeutics, Inc., priority 2012, dated 2016):

Legend:
CYP3A4 = molecular target: T1, CYP3A4 (Homo sapiens, UniProt P08684); assay: Cytochrome P450 inhibition assay (midazolam hydroxylation); type: in vitro ADME; details: human, human liver microsomes, probe midazolam (hydroxylation to 1′-hydroxymidazolam), 10 μM test compound, midazolam at approximately its Km
T1 construct: pre-incubated with human liver microsomes and NADPH; from tissue; host or cells: human liver microsomes
T1 sequence (P08684 whole entry): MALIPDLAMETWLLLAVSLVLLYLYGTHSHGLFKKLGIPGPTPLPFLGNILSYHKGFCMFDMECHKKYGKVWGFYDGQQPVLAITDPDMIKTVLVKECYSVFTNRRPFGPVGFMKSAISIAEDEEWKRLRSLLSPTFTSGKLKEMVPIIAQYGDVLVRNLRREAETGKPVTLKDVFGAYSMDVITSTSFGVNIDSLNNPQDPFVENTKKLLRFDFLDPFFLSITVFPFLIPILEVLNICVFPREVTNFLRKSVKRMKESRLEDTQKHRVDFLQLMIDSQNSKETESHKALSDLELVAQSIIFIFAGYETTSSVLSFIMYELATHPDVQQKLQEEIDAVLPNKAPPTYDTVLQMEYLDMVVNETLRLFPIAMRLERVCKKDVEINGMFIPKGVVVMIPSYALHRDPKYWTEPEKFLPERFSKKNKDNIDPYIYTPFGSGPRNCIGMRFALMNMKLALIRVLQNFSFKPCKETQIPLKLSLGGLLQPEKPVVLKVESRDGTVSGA
Summary of the method: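 Human liver microsomes; CYP3A4 activity as midazolam 1′-hydroxylation with substrate near Km, with or without 10 μM test compound, read as percent inhibition. For time-dependent inhibition, parallel samples were preincubated 30 min with NADPH before substrate, and percent inhibition compared with non-preincubated samples.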

OX1 = molecular target: T2, OX1 (Homo sapiens, UniProt O43613); assay: Orexin receptor cell-based functional assay, [Ca2+]i by FLIPR, CHO-OX1 cells; details: CHO-OX1 cells, [Ca2+]i by FLIPR, antagonist dose-range 0.1 nM-10 μM, EC90 of OXA; read-out: OX1
T2 construct: expressed in transfected cells; host or cells: CHO (CHO-OX1, kept under selection antibiotic)
T2 sequence (O43613 1-425): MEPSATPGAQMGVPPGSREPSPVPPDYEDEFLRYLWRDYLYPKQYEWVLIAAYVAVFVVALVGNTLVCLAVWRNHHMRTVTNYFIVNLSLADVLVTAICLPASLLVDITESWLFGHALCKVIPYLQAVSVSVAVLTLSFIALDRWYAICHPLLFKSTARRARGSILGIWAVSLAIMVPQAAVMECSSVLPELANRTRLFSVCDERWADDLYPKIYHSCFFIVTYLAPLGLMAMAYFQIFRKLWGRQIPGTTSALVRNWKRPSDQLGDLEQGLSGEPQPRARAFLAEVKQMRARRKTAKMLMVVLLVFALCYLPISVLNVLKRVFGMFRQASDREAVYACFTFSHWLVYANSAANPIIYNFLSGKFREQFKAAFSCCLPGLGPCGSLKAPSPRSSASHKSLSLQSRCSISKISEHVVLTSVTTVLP
Summary of the method: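 CHO cells expressing human OX1 or OX2 loaded with calcium dye plus 2.5 mM probenecid at 37° C (calcium4, 30 min, or calcium6, 2 h), then exposed to compounds (0.1 nM-10 μM) for 30 min. Intracellular Ca2+ measured on FLIPR; antagonist format.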

inhibition at 10 µM (CYP3A4) [%]	IC50 (OX1) [nM]	Compound
88	> 1000	Cc1ccc(-c2cnn(C)c2)c(C(=O)N2CCC[C@@H](C)[C@H]2CNc2ncccc2C#N)c1 [Example A95, 2-((((2S,3R)-3-Methyl-1-(5-methyl-2-(1-methyl-1H-pyrazol-4-yl)benzoyl)piperidin-2-yl)methyl)amino)nicotinonitrile]
52	340	Cc1ccc(-n2nccn2)c(C(=O)N2CCC[C@@H](C)[C@H]2CNc2ncccc2C)c1 [Example A99, ((2S,3R)-3-Methyl-2-(((3-methylpyridin-2-yl)amino)methyl)piperidin-1-yl)(5-methyl-2-(2H-1,2,3-triazol-2-yl)phenyl)methanone]
85	1300	Cc1ccc(-c2cnn(C)c2)c(C(=O)N2CCC[C@@H](C)[C@H]2CNc2ncccc2C)c1 [Example A100, ((2S,3R)-3-Methyl-2-(((3-methylpyridin-2-yl)amino)methyl)piperidin-1-yl)(5-methyl-2-(1-methyl-1H-pyrazol-4-yl)phenyl)methanone]
91	4	Cc1ccc(-n2cc(C)cn2)c(C(=O)N2CCC[C@@H](C)[C@H]2CNc2ccc(C(F)(F)F)cn2)c1 [Example A107, ((2S,3R)-3-Methyl-2-(((5-(trifluoromethyl)pyridin-2-yl)amino)methyl)piperidin-1-yl)(5-methyl-2-(4-methyl-1H-pyrazol-1-yl)phenyl)methanone]
95	16	CCn1cc(-c2ccc(C)cc2C(=O)N2CCC[C@@H](C)[C@H]2CNc2ccc(C(F)(F)F)cn2)cn1 [Example A110, (2-(1-Ethyl-1H-pyrazol-4-yl)-5-methylphenyl)((2S,3R)-3-methyl-2-(((5-(trifluoromethyl)pyridin-2-yl)amino)methyl)piperidin-1-yl)methanone]
96	17	Cc1ccc(-c2cnn(C(C)C)c2)c(C(=O)N2CCC[C@@H](C)[C@H]2CNc2ccc(C(F)(F)F)cn2)c1 [Example A111, (2-(1-Isopropyl-1H-pyrazol-4-yl)-5-methylphenyl)((2S,3R)-3-methyl-2-(((5-(trifluoromethyl)pyridin-2-yl)amino)methyl)piperidin-1-yl)methanone]
84	2	Cc1ccc(-n2ncc(C)n2)c(C(=O)N2CCC[C@@H](C)[C@H]2CNc2ccc(C(F)(F)F)cn2)c1 [Example A112, ((2S,3R)-3-Methyl-2-(((5-(trifluoromethyl)pyridin-2-yl)amino)methyl)piperidin-1-yl)(5-methyl-2-(4-methyl-2H-1,2,3-triazol-2-yl)phenyl)methanone]
90	16	Cc1ccc(-n2ccc(C)n2)c(C(=O)N2CCC[C@@H](C)[C@H]2CNc2nc3cc(Cl)ccc3o2)c1 [Example A115, ((2S,3R)-2-(((5-Chlorobenzo[d]oxazol-2-yl)amino)methyl)-3-methylpiperidin-1-yl)(5-methyl-2-(3-methyl-1H-pyrazol-1-yl)phenyl)methanone]
92	37	Cc1ccc(-c2ccccn2)c(C(=O)N2CCC[C@@H](C)[C@H]2CNc2ccc(Cl)cn2)c1 [Example A117, ((2S,3R)-2-(((5-chloropyridin-2-yl)amino)methyl)-3-methylpiperidin-1-yl)(5-methyl-2-(pyridin-2-yl)phenyl)methanone]
90	21	Cc1ccc(-n2ccc(C)n2)c(C(=O)N2CCC[C@@H](C)[C@H]2CNc2ccc(Cl)cn2)c1 [Example A120, ((2S,3R)-2-(((5-Chloropyridin-2-yl)amino)methyl)-3-methylpiperidin-1-yl)(5-methyl-2-(3-methyl-1H-pyrazol-1-yl)phenyl)methanone]
84	5	Cc1ccc(-n2ncc(C)n2)c(C(=O)N2CCC[C@@H](C)[C@H]2CNc2ccc(Cl)cn2)c1 [Example A121, ((2S,3R)-2-(((5-Chloropyridin-2-yl)amino)methyl)-3-methylpiperidin-1-yl)(5-methyl-2-(4-methyl-2H-1,2,3-triazol-2-yl)phenyl)methanone]
57	5	Cc1ccc(-n2nccn2)c(C(=O)N2CCC[C@@H](C)[C@H]2CNc2ccc(C#N)cn2)c1 [Example A127, 6-((((2S,3R)-3-Methyl-1-(5-methyl-2-(2H-1,2,3-triazol-2-yl)benzoyl)piperidin-2-yl)methyl)amino)nicotinonitrile]
89	93	Cc1ccc(-n2ccc(C)n2)c(C(=O)N2CCC[C@@H](C)[C@H]2CNc2ccc(C#N)cn2)c1 [Example A133, 6-((((2S,3R)-3-Methyl-1-(5-methyl-2-(3-methyl-1H-pyrazol-1-yl)benzoyl)piperidin-2-yl)methyl)amino)nicotinonitrile]

Further lines, the molecule ahead of its results:

Compound	inhibition at 10 µM (CYP3A4) [%]	IC50 (OX1) [nM]
COc1cccnc1NC[C@@H]1[C@H](C)CCCN1C(=O)c1cc(C)ccc1-n1nccn1 [Example A98, ((2S,3R)-2-(((3-Methoxypyridin-2-yl)amino)methyl)-3-methylpiperidin-1-yl)(5-methyl-2-(2H-1,2,3-triazol-2-yl)phenyl)methanone]	48	270
Cc1ccc(-n2ncc(C)n2)c(C(=O)N2CCC[C@@H](C)[C@H]2CNc2nc3cc(Cl)ccc3o2)c1 [Example A116, ((2S,3R)-2-(((5-Chlorobenzo[d]oxazol-2-yl)amino)methyl)-3-methylpiperidin-1-yl)(5-methyl-2-(4-methyl-2H-1,2,3-triazol-2-yl)phenyl)methanone]	75	4
Cc1ccc(-n2nccn2)c(C(=O)N2CCC[C@@H](C)[C@H]2CNc2ccc(C(F)(F)F)nn2)c1 [Example A119, ((2S,3R)-3-Methyl-2-(((6-(trifluoromethyl)pyridazin-3-yl)amino)methyl)piperidin-1-yl)(5-methyl-2-(2H-1,2,3-triazol-2-yl)phenyl)methanone]	59	19
Cc1ccc(-n2nccn2)c(C(=O)N2CCC[C@@H](C)[C@H]2CNc2ncc3cc(Br)ccc3n2)c1 [Example A122, ((2S,3R)-2-(((6-Bromoquinazolin-2-yl)amino)methyl)-3-methylpiperidin-1-yl)(5-methyl-2-(2H-1,2,3-triazol-2-yl)phenyl)methanone]	72	96
Cc1ccc(-n2nccn2)c(C(=O)N2CCC[C@@H](C)[C@H]2CNc2nc(C(F)(F)F)cs2)c1 [Example A123, ((2S,3R)-3-Methyl-2-(((4-(trifluoromethyl)thiazol-2-yl)amino)methyl)piperidin-1-yl)(5-methyl-2-(2H-1,2,3-triazol-2-yl)phenyl)methanone]	97	410
Cc1ccc(-n2ncc(C)n2)c(C(=O)N2CCC[C@@H](C)[C@H]2CNc2ccc(C(F)(F)F)nn2)c1 [Example A125, ((2S,3R)-3-Methyl-2-(((6-(trifluoromethyl)pyridazin-3-yl)amino)methyl)piperidin-1-yl)(5-methyl-2-(4-methyl-2H-1,2,3-triazol-2-yl)phenyl)methanone]	75	25
Cc1ccc(-n2nccn2)c(C(=O)N2CCC[C@@H](C)[C@H]2CNc2nc3cc(F)ccc3o2)c1 [Example A129, ((2S,3R)-2-(((5-Fluorobenzo[d]oxazol-2-yl)amino)methyl)-3-methylpiperidin-1-yl)(5-methyl-2-(2H-1,2,3-triazol-2-yl)phenyl)methanone]	64	3
Cc1ccc(-n2ccc(C)n2)c(C(=O)N2CCC[C@@H](C)[C@H]2CNc2ccc(C(F)(F)F)nn2)c1 [Example A130, ((2S,3R)-3-Methyl-2-(((6-(trifluoromethyl)pyridazin-3-yl)amino)methyl)piperidin-1-yl)(5-methyl-2-(3-methyl-1H-pyrazol-1-yl)phenyl)methanone]	86	21
Cc1ccc(-n2ccc(C)n2)c(C(=O)N2CCC[C@@H](C)[C@H]2CNc2nnc(C(F)(F)F)s2)c1 [Example A132, ((2S,3R)-3-Methyl-2-(((5-(trifluoromethyl)-1,3,4-thiadiazol-2-yl)amino)methyl)piperidin-1-yl)(5-methyl-2-(3-methyl-1H-pyrazol-1-yl)phenyl)methanone]	81	160
Cc1ccc(-n2nccn2)c(C(=O)N2CCC[C@@H](C)[C@H]2CNc2ncc(C#N)cn2)c1 [Example A134, 2-((((2S,3R)-3-Methyl-1-(5-methyl-2-(2H-1,2,3-triazol-2-yl)benzoyl)piperidin-2-yl)methyl)amino)pyrimidine-5-carbonitrile]	50	150
